Experimental data from patent US10058593B2, “Methods and compositions for oral administration of proteins” (Oramed Ltd., priority 2008, dated 2018).

Test system: dogs
Assay: Previous experiment in dogs treated with the same formulations
Assay type: in vivo, dog
Method: 4 days prior to dosing, formulation were prepared containing: (1) 8 mg insulin, 150 mg EDTA, 125 mg SBTI in 1 ml fish oil in a soft-gel capsule (SwissCup), (2). 8 mg insulin, 150 mg EDTA, 150000 KIU Aprotinin in 1 ml fish oil in a soft-gel capsule (SwissCup), (3) 8 mg insulin, 150 mg EDTA, 150000 KIU Aprotinin, 125 mg SBTI in 1 ml fish oil in a soft-gel capsule (SwissCup). The formulations were stored in the refrigerator (4° C.) until dosing.
Thus, the results regarding the reduction in blood glucose levels with insulin and a combination of protease inhibitors was unexpected.
Thus, the results regarding the reduction in blood C-peptide levels with insulin and a combination of protease inhibitors was unexpected.
The above described formulations are also active with 0.5 ml fish oil both in dogs and humans.

## Aprotinin
  reaction of dogs to Aprotinin: do not react
